# Counter-ions that a name gives are not always drawn.
# Key:
# [1] = biological target: T1, Human CalcitoninR (Homo sapiens, UniProt P30988); assay: GPCR cell-based cAMP assay, human calcitonin receptor; conditions: stably transfected CHO-Kl cells, 0.1% casein
# T1 construct: expressed in transfected cells; host or cells: CHO-K1, stably transfected
# T1 sequence (P30988 25-474): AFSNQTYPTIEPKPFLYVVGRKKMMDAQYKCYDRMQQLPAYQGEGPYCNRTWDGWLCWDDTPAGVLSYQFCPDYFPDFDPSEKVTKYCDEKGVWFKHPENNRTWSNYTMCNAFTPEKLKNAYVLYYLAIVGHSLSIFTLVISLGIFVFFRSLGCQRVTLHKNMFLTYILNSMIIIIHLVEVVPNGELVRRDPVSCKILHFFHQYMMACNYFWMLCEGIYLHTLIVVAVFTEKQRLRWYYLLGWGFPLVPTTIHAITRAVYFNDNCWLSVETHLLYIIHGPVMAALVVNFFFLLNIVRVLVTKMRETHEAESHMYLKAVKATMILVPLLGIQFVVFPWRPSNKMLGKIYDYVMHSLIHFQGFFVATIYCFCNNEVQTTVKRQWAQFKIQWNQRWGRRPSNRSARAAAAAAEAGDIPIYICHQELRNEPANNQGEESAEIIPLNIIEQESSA
# Protocol: (§1) Experimental protocol: Cells were seeded in a total volume of 20 μL into white walled, 384-well microplates and incubated at 37° C. overnight prior to testing. Prior to testing cell plating media was exchanged with 10 μL of Assay buffer (HBSS+10 mM HEPES). All compounds were run in assay buffer containing 0.1% casein. Briefly, intermediate dilution of sample stocks was performed to generate 4× sample in assay buffer. 5 μL of 4× sample was added to cells and incubated at 37° C. for 30 minutes. Final assay vehicle concentration was 1%. […] Microplates were read following signal generation with PerkinElmer Envision instrument for chemiluminescent signal detection.
# (§2) The results are expressed as a percent efficacy relative to the maximum response of the control ligand.
# [2] = system: DIO mice; assay: Food intake and body weight after repeated dosing in DIO mice; type: in vivo, C57BL/6j male mice; conditions: daily injection 10 nmol/kg for 20 days
# Protocol: (§3) Differences were considered statistically significant at p<0.05. Data analysis was carried out with GraphPad software (GraphPad Prism).
# [3] = biological target: T2, Human Calc/RAMP3R (AMY3) (Homo sapiens, UniProt O60896+P30988); assay: GPCR cell-based cAMP assay, human AMY3 receptor; conditions: stably transfected CHO-Kl cells, 0.1% casein
# T2 construct: expressed in transfected cells; host or cells: CHO-K1, stably transfected
# T2 sequence (P30988 25-474): T1 sequence (P30988 25-474)
# T2 sequence (O60896 24-148 partner): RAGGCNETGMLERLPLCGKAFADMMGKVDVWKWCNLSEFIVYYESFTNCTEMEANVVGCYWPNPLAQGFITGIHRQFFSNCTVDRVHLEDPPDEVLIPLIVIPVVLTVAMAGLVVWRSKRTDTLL
# Protocol: as §1, §2
# [4] = system: lean mice; assay: Acute food intake in lean mice after single s.c. administration; type: in vivo, C57BL/6j male mice; conditions: mean ± SEM
# Protocol: as §3
# [5] = biological target: T3, Human GLP-1R (Homo sapiens, UniProt P43220); assay: GPCR cell-based cAMP assay, human GLP-1 receptor; parameters: expressed in transfected cells; host or cells: CHO-K1, stably transfected; conditions: stably transfected CHO-Kl cells, 0.1% casein
# Protocol: as §1, §2
# Target sequence in this assay (P43220 24-463): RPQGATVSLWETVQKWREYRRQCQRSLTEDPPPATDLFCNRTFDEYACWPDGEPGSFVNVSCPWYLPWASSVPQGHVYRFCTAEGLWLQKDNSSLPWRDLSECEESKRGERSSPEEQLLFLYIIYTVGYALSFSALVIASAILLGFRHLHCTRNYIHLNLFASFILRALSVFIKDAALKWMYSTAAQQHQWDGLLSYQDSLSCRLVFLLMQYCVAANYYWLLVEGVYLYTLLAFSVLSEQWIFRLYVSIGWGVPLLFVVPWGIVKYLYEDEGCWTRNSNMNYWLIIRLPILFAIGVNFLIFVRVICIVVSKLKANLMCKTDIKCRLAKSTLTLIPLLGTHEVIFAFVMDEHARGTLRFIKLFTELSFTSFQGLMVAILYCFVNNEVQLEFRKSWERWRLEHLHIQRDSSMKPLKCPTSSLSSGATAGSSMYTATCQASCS
# [6] = biological target: T4, Human GIPR (Homo sapiens, UniProt P48546); assay: GPCR cell-based cAMP assay, human GIP receptor; conditions: stably transfected CHO-Kl cells, 0.1% casein
# T4 construct: expressed in transfected cells; host or cells: CHO-K1, stably transfected
# T4 sequence (P48546 22-466): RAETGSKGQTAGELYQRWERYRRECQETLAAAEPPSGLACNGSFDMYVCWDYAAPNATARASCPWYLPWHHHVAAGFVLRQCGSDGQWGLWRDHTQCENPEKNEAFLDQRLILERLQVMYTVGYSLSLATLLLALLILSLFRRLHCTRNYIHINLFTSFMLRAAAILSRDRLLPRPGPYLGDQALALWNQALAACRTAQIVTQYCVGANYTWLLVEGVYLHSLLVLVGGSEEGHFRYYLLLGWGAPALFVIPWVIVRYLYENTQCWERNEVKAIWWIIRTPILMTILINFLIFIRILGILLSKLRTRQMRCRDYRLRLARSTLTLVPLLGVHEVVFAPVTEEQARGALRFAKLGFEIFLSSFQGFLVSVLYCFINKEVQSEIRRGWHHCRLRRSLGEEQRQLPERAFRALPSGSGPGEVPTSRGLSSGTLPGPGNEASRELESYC
# Protocol: as §1, §2
# [7] = system: lean rats; assay: Acute food intake and body weight reduction in lean rats; type: in vivo, Sprague Dawley male rats; conditions: single s.c. 10 nmol/Kg, mean ± SEM
# Protocol: Food intake was measured at different time-intervals post-injection up to 72 h using a precision balance. Cumulative food intake was calculated for the indicated time-periods. Body weight was measured at the indicated time-periods. Mean of cumulative food intake in each dose group was compared to vehicle and reported as a percentage of mean reduction relative to vehicle.
# All data shown are the mean±standard error (SEM).
# [8] = system: 4 h fasted mice; assay: Blood glucose after single administration of peptides; type: in vivo; conditions: 4 h fasted mice, single s.c. 10 nmol/Kg, mean ± SEM
# Protocol: as §3
# [9] = biological target: T5, human calcitonin receptor (human) (UniProt P30988); assay: cell-based or functional assay
# T5 sequence (looked up): T1 sequence (P30988 25-474)
# [10] = biological target: T3, Human GLP-1R; assay: cell-based or functional assay
# [11] = biological target: T6, human GIP receptor (human) (UniProt P48546); assay: cell-based or functional assay
# T6 sequence (looked up): T4 sequence (P48546 22-466)
compound,measurement,setting,value
"CC[C@H](C)[C@H](NC(=O)[C@H](CC(C)C)NC(=O)[C@H](Cc1c[nH]c2ccccc12)NC(=O)[C@H](CCC(N)=O)NC(=O)[C@@H](NC(=O)[C@H](Cc1ccccc1)NC(=O)[C@H](C)NC(=O)[C@H](CCC(N)=O)NC(=O)[C@H](CCC(N)=O)NC(=O)[C@H](C)NC(=O)[C@@H](NC(=O)[C@H](CCCCN)NC(=O)[C@H](CC(=O)O)NC(=O)[C@H](CC(C)C)NC(=O)C(C)(C)NC(=O)[C@@H](NC(=O)[C@H](CO)NC(=O)[C@H](Cc1ccc(O)cc1)NC(=O)[C@H](CC(=O)O)NC(=O)[C@H](CO)NC(=O)[C@@H](NC(=O)[C@H](Cc1ccccc1)NC(=O)[C@@H](NC(=O)CNC(=O)[C@H](CCC(=O)O)NC(=O)C(C)(C)NC(=O)[C@@H](N)Cc1ccc(O)cc1)[C@@H](C)O)[C@@H](C)O)[C@@H](C)CC)[C@@H](C)CC)C(C)C)C(=O)N[C@@H](C)C(=O)NCC(=O)NCC(=O)N1CCC[C@H]1C(=O)N[C@@H](CO)C(=O)N[C@@H](CCCCN)C(=O)N[C@H]1CSSC[C@@H](C(=O)N[C@H](C(=O)N[C@@H](CC(C)C)C(=O)NCC(=O)N[C@@H](CCCNC(=N)N)C(=O)N[C@@H](CC(C)C)C(=O)N[C@@H](CO)C(=O)N[C@@H](CCC(N)=O)C(=O)N[C@@H](CCC(=O)O)C(=O)N[C@@H](CC(C)C)C(=O)N[C@@H](Cc2c[nH]cn2)C(=O)N[C@@H](CCCNC(=N)N)C(=O)N[C@@H](CC(C)C)C(=O)N[C@@H](CCC(N)=O)C(=O)N[C@H](C(=O)N[C@@H](Cc2ccc(O)cc2)C(=O)N2CCC[C@H]2C(=O)N[C@@H](CCCNC(=N)N)C(=O)N[C@H](C(=O)N[C@@H](CC(N)=O)C(=O)N[C@H](C(=O)NCC(=O)N[C@@H](CCCCNC(=O)COCCOCCNC(=O)COCCOCCNC(=O)CC[C@H](NC(=O)CCCCCCCCCCCCCCCCC(=O)O)C(=O)O)C(=O)N[C@@H](CC(N)=O)C(=O)N[C@H](C(=O)N[C@@H](Cc2ccc(O)cc2)C(N)=O)[C@@H](C)O)[C@@H](C)O)[C@@H](C)O)[C@@H](C)O)C(C)C)NC(=O)[C@H]([C@@H](C)O)NC(=O)[C@H](C)NC(=O)[C@H]([C@@H](C)O)NC(=O)[C@H](CC(N)=O)NC1=O [SEQ ID NO. 47, Y-Aib-E-G-T-F-T-S-D-Y-S-I-Aib-LDKIAQQAFVQWLIAGGPSKCNTATCVLGRLSQELHRLQTYPRTNTGK*-N-T-Y-NH2-acetate salt (wherein K* = Lys(AEEAc-AEEAc-γ-Glu-17-carboxyheptadecanoyl))]",EC50,[1],0.185 nM
same,Effect on fasting insulin,"[2]; 4 h fasted, FIG. 5",reduced
same,Effect on fasting serum glucose,"[2]; 4 h fasted, FIG. 5",reduced
same,Effect on food intake in DIO mice,[2]; FIG. 2,reduce
same,Effect on body weight in DIO mice,[2]; FIG. 3,reduce
same,"Effect on fat mass, assessed by MRI",[2]; FIG. 4,reduction of fat mass
same,EC50,[3],0.353 nM
same,Cumulative food intake reduction relative to vehicle,"[4]; Table 12, 10 nmol/Kg, 8 H",64.7 ± 2.16 %
same,Cumulative food intake reduction relative to vehicle,"[4]; Table 12, 10 nmol/Kg, 24 H",65.4 ± 1.53 %
same,Cumulative food intake reduction relative to vehicle,"[4]; Table 12, 10 nmol/Kg, 48 H",42.3 ± 1.61 %
same,Cumulative food intake reduction relative to vehicle,"[4]; Table 12, 10 nmol/Kg, 72 H",26.0 ± 2.27 %
same,Cumulative food intake reduction relative to vehicle,"[4]; Table 13, 10 nmol/Kg, 8 H",62.5 ± 2.81 %
same,Cumulative food intake reduction relative to vehicle,"[4]; Table 13, 10 nmol/Kg, 24 H",49.0 ± 5.24 %
same,Cumulative food intake reduction relative to vehicle,"[4]; Table 13, 10 nmol/Kg, 48 H",28.0 ± 3.62 %
same,Cumulative food intake reduction relative to vehicle,"[4]; Table 13, 10 nmol/Kg, 72 H",14.8 ± 2.78 %
same,Cumulative food intake reduction relative to vehicle,"[4]; Table 13, 30 nmol/Kg, 8 H",83.6 ± 2.44 %
same,Cumulative food intake reduction relative to vehicle,"[4]; Table 13, 30 nmol/Kg, 24 H",64.5 ± 4.61 %
same,Cumulative food intake reduction relative to vehicle,"[4]; Table 13, 30 nmol/Kg, 48 H",36.7 ± 2.82 %
same,Cumulative food intake reduction relative to vehicle,"[4]; Table 13, 30 nmol/Kg, 72 H",25.2 ± 2.60 %
same,EC50,[5],0.438 nM
same,EC50,[6],0.121 nM
same,Cumulative food intake reduction vs vehicle,[7]; 4 H,14.0 ± 7.72%
same,Cumulative food intake reduction vs vehicle,[7]; 12 H,40.6 ± 4.52 %
same,Cumulative food intake reduction vs vehicle,[7]; 24 H,40.8 ± 4.23 %
same,Cumulative food intake reduction vs vehicle,[7]; 48 H,30.1 ± 3.03 %
same,Cumulative food intake reduction vs vehicle,[7]; 72 H,14.3 ± 2.53 %
same,Food intake reduction by intervals vs vehicle,[7]; interval 0-4 H,14.0 ± 7.72%
same,Food intake reduction by intervals vs vehicle,[7]; interval 4-12 H,48.7 ± 5.41 %
same,Food intake reduction by intervals vs vehicle,[7]; interval 12-24 H,42.9 ± 9.15 %
same,Food intake reduction by intervals vs vehicle,[7]; interval 24-48 H,19.3 ± 2.41 %
same,Food intake reduction by intervals vs vehicle,[7]; interval 48-72 H,−23.3 ± 4.52 %
same,"Blood glucose, 120 min",[8]; 120 min after injection,102.2 ± 4.08 mg/dL
same,"Blood glucose, 240 min",[8]; 240 min after injection,77.0 ± 3.75 mg/dL
same,"Blood glucose, Time 0",[8]; Time 0 (baseline),174.7 ± 3.62 mg/dL
Calcitonin (peptide),"EC50 (nM), cell-based cAMP assay, CHO-K1 cells",[9],0.026 nM
Exendin-4 (from UniProt P26349 48-86) (peptide),"EC50 (nM), cell-based cAMP assay, CHO-K1 cells",[10],0.002 nM
GIP (peptide),"EC50 (nM), cell-based cAMP assay, CHO-K1 cells",[11],0.075 nM
